Test results taken from the NIST ThermoML archive (doi:10.1016/j.jct.2014.05.015).

Experiment: mn = molality of the nth substance listed, in mol/kg
Settings: 100 kPa, Liquid; for speed of sound: Frequency=3 MHz, Sing-around technique in a fixed-path interferometer; for mass density: Vibrating tube method

C[N+](C)(C)CC(=O)O.[Cl-] [betaine hydrochloride] + O
Settings	mass density, 293.15 K [kg/m3]	mass density, 298.15 K [kg/m3]	mass density, 303.15 K [kg/m3]	mass density, 308.15 K [kg/m3]	mass density, 313.15 K [kg/m3]	speed of sound, 293.15 K [m/s]	speed of sound, 298.15 K [m/s]	speed of sound, 303.15 K [m/s]	speed of sound, 308.15 K [m/s]	speed of sound, 313.15 K [m/s]
m1 = 0.00988	998.597	997.445	996.042	994.425	992.605	1483.8	1497.7	1510	1520.7	1529.8
m1 = 0.02034	998.988	997.829	996.428	994.806	992.98	1484.8	1498.7	1511	1521.7	1530.7
m1 = 0.03199	999.418	998.253	996.847	995.225	993.389	1486	1499.8	1512.1	1522.8	1531.8
m1 = 0.03929	999.672	998.509	997.099	995.477	993.638	1486.6	1500.5	1512.8	1523.5	1532.4
m1 = 0.04992	1000.05	998.883	997.471	995.846	993.998	1487.6	1501.3	1513.6	1524.4	1533.3
m1 = 0.05925	1000.37	999.196	997.795	996.165	994.316	1488.4	1502.3	1514.2	1525.1	1534.1
